Key:
HUVEC = test: Anti-angiogenesis activity in HUVEC assessed as inhibition of VEGF-induced tube formation incubated for 6 hrs by capillary tube formation assay; assay type: functional, cell-based; conditions: Homo sapiens
[1] = biological target: NAD(P)H dehydrogenase [quinone] 1 (Mus musculus) (UniProt Q64669); test: Activation of quinone reductase in mouse Hepa1c1c7 cells at 20 uM incubated for 24 hrs by MTT based assay relative to control; assay type: cell-based; conditions: filed as activator
Chain of NAD(P)H dehydrogenase [quinone] 1 (Mus musculus) (Q64669 whole entry): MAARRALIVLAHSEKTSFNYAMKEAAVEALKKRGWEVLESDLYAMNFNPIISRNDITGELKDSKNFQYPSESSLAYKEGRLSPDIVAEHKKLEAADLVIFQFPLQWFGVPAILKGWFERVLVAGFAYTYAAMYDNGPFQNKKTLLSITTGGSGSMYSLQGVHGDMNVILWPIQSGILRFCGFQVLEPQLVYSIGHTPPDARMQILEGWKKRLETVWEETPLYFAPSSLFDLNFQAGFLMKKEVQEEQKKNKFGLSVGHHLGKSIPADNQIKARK

[2] = Cytotoxicity against mouse Hepa1c1c7 cells assessed as reduction in cell viability after 24 hrs by MTT assay; assay type: cell-based; conditions: hepa1c1c7, 24 h

## CCN(CC)CCNC(=O)c1c(C)[nH]c(/C=C2\C(=O)Nc3ccc(F)cc32)c1C [SUNITINIB]
HUVEC
  IC50: 1.5 µM

## C/C=C\[C@@H](O)CC[C@@H](C)[C@@H](O)[C@H](C)[C@]1(C)C/C=C/C=C/[C@H](O)C(=O)/C(C)=C/C=C/C(C)=C/[C@@H](O)/C(C)=C/CC(=O)O1
HUVEC
  IC50: 13 µM
[1]
  fold change (FC): 2.08
[2]
  Activity: Non-Toxic

## CCC[C@]1(O)C[C@H](O)[C@@H](C)[C@H]([C@H](C)[C@@H]2C/C=C/C=C/[C@H](O)C(=O)/C(C)=C/C=C/C(C)=C/[C@@H](O)/C(C)=C/CC(=O)O2)O1
HUVEC
  IC50: 20 µM
[1]
  fold change (FC): 2.07
[2]
  Activity: Non-Toxic

— ChEMBL document CHEMBL4665794, “Formicolides A and B, Antioxidative and Antiangiogenic 20-Membered Macrolides from a Wood Ant Gut Bacterium” (J Nat Prod, 2020)
